pIC50: −log10 of the molar value. Where two headings read alike, the source gives them in different places.
How the values were obtained:
[1] = target: T1, FGFR1 (Homo sapiens, UniProt P11362); test: Kinase binding assay (kinase-tagged T7 phage, affinity beads, qPCR), Kd; details: read-out: FGFR1 (Kd nM)
T1 construct: made in house; host or cells: E. coli (BL21-derived), T7 phage
How it was run: (§1)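 Competition binding; kinase-tagged T7 phage lysate vs immobilised biotinylated ligand on streptavidin beads, 0.9% DMSO final. 11-pt 3-fold dilutions, 3 DMSO controls. qPCR of eluted kinase; Kd by Hill fit, slope −1.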

[2] = target: T2, FGFR3 (Homo sapiens, UniProt P22607); test: as above; details: read-out: FGFR3 (Kd nM)
T2 construct: made in house; host or cells: E. coli (BL21-derived), T7 phage
How it was run: as §1

[3] = test system: KG-1 cell line (FGFR 1-fusion); test: Cancer cell line cell viability assay (Cell Titer-Glo), 72 hr; assay type: cell-based; details: Homo sapiens, KG-1, KG-1 cell line (FGFR1-fusion)
Excerpt: (§2) Experimental Purpose: To detect the change of intracellular ATP by Cell Titer-Glo® and to evaluate the inhibitory effect of the compounds on cancer cell lines by determining the in vitro IC50 value of the compounds.
(§3) Cell Titer-Glo® 2.0 Luminescent cell viability assay reagent was purchased from Promega (Madison, WI). KG-1, KATO-III, and MDA-MB-453 cell lines were purchased from American Type Culture Collection (Manassas, VA). RT112/84 cell line was purchased from Millipore-Sigma (St. Louis, MO). HuH7 cells were purchased from Seikisui Xenotech (Kansas City, KS). RT112/84 and MDA-MB-453 cells were cultured in RPMI1640 media supplemented with 10% fetal bovine serum. KG-1 and KATO-III cell lines were cultured in IMDM media supplemented with 20% FBS. HuH7 cells were cultured in IMDM media supplemented with 10% FBS. Cultures were maintained at 37° C. in a humidified atmosphere of 5% CO2 and 95% air.
(§4) Cell Viability Assay Procedure: Cells were plated in 96-well clear bottom/white plates (Corning #3903) at a range of densities depending on the optimal assay window (5,000-20,000 cells/well in […] of media), incubated overnight. The next day, test compound DMSO stock solutions were made at 10 mM and […] final concentration. Compounds were then added to cells in a 9-dose, 4-fold dilution series starting at 3 μM with an HP 300e Digital Dispenser (each dose was applied in triplicate). DMSO was backfilled to each well up to 301 nL total volume of test compound+DMSO, and a total of 301 nL DMSO was added to a control/no test compound well in triplicate. The cells in cell culture plates were incubated with the compounds at 37° C. and 5% CO2 for 72 hours-120 hours depending on the cell line. Then 50 μl of Cell Titer Glo 2.0 reagent was added to each well of the cell culture plates. The contents were covered from light and mixed on an orbital shaker at room temperature for minimum of 10 min. Luminescence was recorded by a Clariostar Plus Microplate Reader (BMG Labtech, Cary, NC). Cells were assessed as a percentage of DMSO only treated control cells. Curves were plotted and IC50 values were calculated using the GraphPad Prism 9 program based on a sigmoidal dose-response equation (log (inhibitor) vs. response—Variable slope, 4-parameter).

[4] = test system: RT112/84 cell line (FGFR3-fusion); test: as above; assay type: cell-based; details: Homo sapiens, RT112/84, RT112/84 cell line (FGFR3-fusion)
Excerpt: as §2, §3, §4

[5] = test system: KATO-III cell line (FGFR2 amplification); test: as above; assay type: cell-based; details: Homo sapiens, KATO III
Excerpt: as §2, §3, §4

[6] = kinase binding assay, 11-point 3-fold dilution series

T1 sequence (P11362 22-822): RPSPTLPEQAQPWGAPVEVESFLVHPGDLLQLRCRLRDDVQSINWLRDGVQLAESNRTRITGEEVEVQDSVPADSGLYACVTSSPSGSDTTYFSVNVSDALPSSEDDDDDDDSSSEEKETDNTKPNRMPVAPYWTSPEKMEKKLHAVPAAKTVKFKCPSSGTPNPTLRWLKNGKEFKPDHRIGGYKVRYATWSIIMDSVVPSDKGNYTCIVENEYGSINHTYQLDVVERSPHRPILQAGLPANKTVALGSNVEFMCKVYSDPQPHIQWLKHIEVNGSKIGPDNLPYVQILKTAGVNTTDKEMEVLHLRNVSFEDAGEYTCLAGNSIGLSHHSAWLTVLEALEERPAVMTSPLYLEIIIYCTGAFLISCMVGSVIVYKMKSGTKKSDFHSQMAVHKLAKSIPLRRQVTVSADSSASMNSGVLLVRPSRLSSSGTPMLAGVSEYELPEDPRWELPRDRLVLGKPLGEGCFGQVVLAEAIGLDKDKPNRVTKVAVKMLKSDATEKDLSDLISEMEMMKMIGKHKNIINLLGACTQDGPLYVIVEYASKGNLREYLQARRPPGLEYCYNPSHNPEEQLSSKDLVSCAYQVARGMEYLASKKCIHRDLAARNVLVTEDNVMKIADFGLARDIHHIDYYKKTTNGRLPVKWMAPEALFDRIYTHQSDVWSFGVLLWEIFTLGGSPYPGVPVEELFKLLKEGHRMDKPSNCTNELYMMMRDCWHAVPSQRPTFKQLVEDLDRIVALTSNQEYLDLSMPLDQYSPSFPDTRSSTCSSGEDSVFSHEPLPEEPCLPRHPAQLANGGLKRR
T2 sequence (P22607 23-806): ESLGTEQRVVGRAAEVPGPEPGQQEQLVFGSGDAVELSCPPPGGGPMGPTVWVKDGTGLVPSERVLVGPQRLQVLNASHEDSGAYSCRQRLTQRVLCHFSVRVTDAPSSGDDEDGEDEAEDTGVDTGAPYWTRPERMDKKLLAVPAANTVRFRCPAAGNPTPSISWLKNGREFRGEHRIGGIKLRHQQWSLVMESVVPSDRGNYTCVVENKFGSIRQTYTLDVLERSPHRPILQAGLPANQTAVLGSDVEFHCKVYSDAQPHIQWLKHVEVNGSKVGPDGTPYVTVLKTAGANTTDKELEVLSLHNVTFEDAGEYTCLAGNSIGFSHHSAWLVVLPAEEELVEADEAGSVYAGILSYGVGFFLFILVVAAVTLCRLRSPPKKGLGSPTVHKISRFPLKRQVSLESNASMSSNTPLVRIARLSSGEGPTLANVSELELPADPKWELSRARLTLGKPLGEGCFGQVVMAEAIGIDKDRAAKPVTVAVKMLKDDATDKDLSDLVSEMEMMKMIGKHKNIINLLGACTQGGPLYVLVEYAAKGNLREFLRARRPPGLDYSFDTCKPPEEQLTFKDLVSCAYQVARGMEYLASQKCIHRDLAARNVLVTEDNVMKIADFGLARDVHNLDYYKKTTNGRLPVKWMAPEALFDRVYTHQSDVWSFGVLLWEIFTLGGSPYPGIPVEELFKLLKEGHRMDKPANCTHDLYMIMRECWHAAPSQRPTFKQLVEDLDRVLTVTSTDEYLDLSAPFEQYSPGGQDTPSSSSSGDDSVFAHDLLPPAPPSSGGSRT

| SMILES | Kd [1] [nM] | Kd [2] [nM] | pIC50 [3] | pIC50 [4] | pIC50 [5] | Kd [1, 6] [nM] | Kd [2, 6] [nM] |
| --- | --- | --- | --- | --- | --- | --- | --- |
| CC(C)OCC1(N)CN(c2ccc(-c3n[nH]c4ccc(O[C@H](C)c5c(Cl)cncc5Cl)cc34)nn2)C1 [Example 377, (R)-1-(6-(5-(1-(3,5-dichloropyridin-4-yl)ethoxy)-1H-indazol-3-yl)pyridazin-3-yl)-3-(isopropoxy-methyl)a-zetidin-3-amine] | 1 to 50 | 1 to 50 | 6.00 to 6.70 | 7.30 to 10.00 | 6.70 to 7.30 |  |  |
| C[C@@H](Oc1ccc2[nH]nc(-c3ccc(N4CC(N)(C(=O)N(C)C)C4)nn3)c2c1)c1c(Cl)cncc1Cl [Example 301, (R)-3-Amino-1-(6-(5-(1-(3,5-dichloropyridin-4-yl)ethoxy)-1H-indazol-3-yl)pyridazin-3-yl)-N,N-dimethylazetidine-3-carboxamide] | 1 to 50 | 1 to 50 | 6.70 to 7.30 | 7.30 to 10.00 | 7.30 to 10.00 |  |  |
| C[C@@H](Oc1ccc2[nH]nc(-c3cnc(N4CC(C)(NCCF)C4)c(F)c3)c2c1)c1c(Cl)cncc1Cl [Example 303, (R)-1-(5-(5-(1-(3,5-dichloropyridin-4-yl)ethoxy)-1H-indazol-3-y1)-3-fluoropyridin-2-yl)-N-(2-fluoroethyl)-3-methylazetidin-3-amine] | 1 to 50 | 1 to 50 | 6.70 to 7.30 | 7.30 to 10.00 | 7.30 to 10.00 |  |  |
| C[C@@H](Oc1ccc2[nH]nc(-c3ccc(N4CC(N)(c5ccnn5C)C4)nn3)c2c1)c1c(Cl)cncc1Cl [Example 391, (R)-1-(6-(5-(1-(3,5-dichloropyridin-4-yl)ethoxy)-1H-indazol-3-yl)pyridazin-3-yl)-3-(1-methyl-1H-pyrazol-5-yl)azetidin-3-amine] |  |  | 6.70 to 7.30 | 7.30 to 10.00 | 7.30 to 10.00 | 1 to 50 | 1 to 50 |
| C[C@@H](Oc1ccc2[nH]nc(-c3ccc(N4CC(N)(CCS(C)(=O)=O)C4)nn3)c2c1)c1c(Cl)cncc1Cl [Example 294, (R)-1-(6-(5-(1-(3,5-dichloropyridin-4-yl)ethoxy)-1H-indazol-3-yl)pyridazin-3-yl)-3-(2-(methylsulfonyl)ethyl)azetidin-3-amine] | 1 to 50 | 1 to 50 | < 6.00 | 7.30 to 10.00 | 6.70 to 7.30 |  |  |
| C[C@@H](Oc1ccc2[nH]nc(-c3ccc(N4CCC(N)(CS(C)(=O)=O)CC4)nn3)c2c1)c1c(Cl)cncc1Cl [Example 386, (R)-1-(6-(5-(1-(3,5-dichloropyridin-4-yl)ethoxy)-1H-indazol-3-yl)pyridazin-3-yl)-4-((methylsulfonyl)methyl)piperidin-4-amine] |  |  | 6.70 to 7.30 | 7.30 to 10.00 | 7.30 to 10.00 | 1 to 50 | 1 to 50 |
| C[C@@H](Oc1ccc2[nH]nc(-c3cnc(N4CC(N)(CCC#N)C4)c(F)c3)c2c1)c1c(Cl)cncc1Cl [Example 298, (R)-3-(3-amino-1-(5-(5-(1-(3,5-dichloropyridin-4-yl)ethoxy)-1H-indazol-3-yl)-3-fluoropyridin-2-yl)azetidin-3-yl)propanenitrile] | 1 to 50 | 1 to 50 | 6.70 to 7.30 | 7.30 to 10.00 | 7.30 to 10.00 |  |  |
| COc1cc2[nH]nc(-c3cnc(N4CC(C)(N)C4)c(F)c3)c2cc1O[C@H](C)c1c(Cl)cncc1Cl [Example 304, (R)-1-(5-(5-(1-(3,5-dichloropyridin-4-yl)ethoxy)-6-methoxy-1H-indazol-3-yl)-3-fluoropyridin-2-yl)-3-methylazetidin-3-amine] | 1 to 50 | 1 to 50 | 6.70 to 7.30 | 7.30 to 10.00 | 7.30 to 10.00 |  |  |
| CCCC1(N)CN(c2ccc(-c3n[nH]c4ccc(O[C@H](C)c5c(Cl)cncc5Cl)cc34)nn2)C1 [Example 295, (R)-1-(6-(5-(1-(3,5-dichloropyridin-4-yl)ethoxy)-1H-indazol-3-yl)pyridazin-3-yl)-3-propylazetidin-3-amine] | 1 to 50 | 1 to 50 |  | 7.30 to 10.00 | 6.70 to 7.30 |  |  |
| C[C@H](O)CC1(N)CN(c2ncc(-c3n[nH]c4ccc(O[C@H](C)c5c(Cl)cncc5Cl)cc34)cc2F)C1 [Example 384, (S)-1-(3-amino-1-(5-(5-((R)-1-(3,5-dichloropyridin-4-yl)ethoxy)-1H-indazol-3-yl)-3-fluoropyridin-2-yl)azetidin-3-yl)propan-2-ol] |  |  | 6.70 to 7.30 | 7.30 to 10.00 | 6.70 to 7.30 | 1 to 50 | 1 to 50 |
| CC(C)OC(=O)C1(N)CN(c2ccc(-c3n[nH]c4ccc(O[C@H](C)c5c(Cl)cncc5Cl)cc34)nn2)C1 [Example 308, (R)-isopropyl 3-amino-1-(6-(5-(1-(3,5-dichloropyridin-4-yl)ethoxy)-1H-indazol-3-yl)pyridazin-3-yl)azetidine-3-carboxylate] | 1 to 50 | 1 to 50 | 6.00 to 6.70 | 7.30 to 10.00 | 6.70 to 7.30 |  |  |
| CCOCC1(N)CN(c2ncc(-c3n[nH]c4ccc(O[C@H](C)c5c(Cl)cncc5Cl)cc34)cc2F)C1 [Example 390, 1-[5-[5-[(1R)-1-(3,5-dichloro-4-pyridyl)ethoxy]-1H-indazol-3-yl]-3-fluoro-2-pyridyl]-3-(ethoxymethyl)azeti-din-3-amine] |  |  | 6.70 to 7.30 | 7.30 to 10.00 | 7.30 to 10.00 | 1 to 50 | 1 to 50 |
| C[C@@H](Oc1ccc2[nH]nc(-c3ccc(N4CC(N)(c5ccn(C)n5)C4)nn3)c2c1)c1c(Cl)cncc1Cl [Example 388, (R)-1-(6-(5-(1-(3,5-dichloropyridin-4-yl)ethoxy)-1H-indazol-3-yl)pyridazin-3-yl)-3-(1-methyl-1H-pyrazol-3-yl)azetidin-3-amine] |  |  | 6.00 to 6.70 | 7.30 to 10.00 | 6.70 to 7.30 | 1 to 50 | 1 to 50 |
| CCOCC1(N)CN(c2ccc(-c3n[nH]c4ccc(O[C@H](C)c5c(Cl)cncc5Cl)cc34)nn2)C1 [Example 316, (R)-1-(6-(5-(1-(3,5-dichloropyridin-4-yl)ethoxy)-1H-indazol-3-yl)pyridazin-3-yl)-3-(ethoxymethyl)azeti-din-3-amine] | 1 to 50 | 1 to 50 | 6.70 to 7.30 | 7.30 to 10.00 | 6.70 to 7.30 |  |  |
| C[C@@H](Oc1ccc2[nH]nc(-c3cnc(N4CC(N)(CC#N)C4)c(F)c3)c2c1)c1c(Cl)cncc1Cl [Example 241, (R)-2-(3-amino-1-(5-(5-(1-(3,5-dichloropyridin-4-yl)ethoxy)-1H-indazol-3-yl)-3-fluoropyridin-2-yl)azetidin-3-yl)acetonitrile] | 1 to 50 | 1 to 50 | 6.70 to 7.30 | 7.30 to 10.00 | 7.30 to 10.00 |  |  |
| C[C@@H](Oc1ccc2[nH]nc(-c3ccc(N4CC(N)(CS(C)(=O)=O)C4)nn3)c2c1)c1c(Cl)cncc1Cl [Example 387, (R)-1-(6-(5-(1-(3,5-dichloropyridin-4-yl)ethoxy)-1H-indazol-3-yl)pyridazin-3-yl)-3-((methylsulfonyl)meth-yl)azetidin-3-amine] |  |  | 6.00 to 6.70 | 7.30 to 10.00 | 6.70 to 7.30 | 1 to 50 | 1 to 50 |
| C[C@@H](Oc1ccc2[nH]nc(-c3ccc(N4CC(C)(NC(=O)CN(C)C)C4)nn3)c2c1)c1c(Cl)cncc1Cl [Example 297, (R)—N-(1-(6-(5-(1-(3,5-dichloropyridin-4-yl)ethoxy)-1H-indazol-3-yl)pyridazin-3-yl)-3-methylazetidin-3-yl)-2-(dimethylamino)acetamide] | 1 to 50 | 1 to 50 | 7.30 to 10.00 | 7.30 to 10.00 | 7.30 to 10.00 |  |  |
| C[C@@H](Oc1ccc2[nH]nc(-c3ccc(N4CC(N)(Cc5ccn(C)n5)C4)nn3)c2c1)c1c(Cl)cncc1Cl [Example 306, (R)-1-(6-(5-(1-(3,5-dichloropyridin-4-yl)ethoxy)-1H-indazol-3-yl)pyridazin-3-yl)-3-((1-methyl-1H-pyrazol-3-yl)methyl)azetidin-3-amine] | 1 to 50 | 1 to 50 | 6.00 to 6.70 | 7.30 to 10.00 | 6.70 to 7.30 |  |  |

— US20250368666A1, “INDAZOLE COMPOUNDS” (TYRA BIOSCIENCES, INC., priority 2022, published 2025)
